The source of these data is ChEMBL document CHEMBL1201862, “PubChem BioAssay data set” (2004).

Among the test systems are OVCAR-5; K562; CCRF-CEM; UO-31; HT-29; OVCAR-3; SF-539; TK-10; SF-268; NCI-H460; IGROV-1; 786-0; A498; HCT-116; SR.
Assay in all cases: NCI-60 cell line screen, 48 h

Several values for one entry are separate records, joined by “and”; a condition that tells them apart may be missing. Identical values can stand only once.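 Test compounds were applied to cells in 96-well plates for 48 hours at 5 doses. GI50 marks 50% less growth.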 Activity calls are given as the source filed them. No stated cut-off is given here; in the data, active = GI50 up to about 1.1 µM and inactive = higher.

Turning to `NCCCNCCSSC/C=C\CSSCCNCCCN`, the GI50 with OVCAR-5 is > 100 µM (inactive); in the assay on K562, 19.2 µM (inactive) and 18.4 µM (inactive); with CCRF-CEM, 3.75 µM (inactive) and 4.3 µM (inactive); in the assay with UO-31 it was 65 µM (inactive) and 63.4 µM (inactive); in the assay with HT-29 it was 14.2 µM (inactive) and 15.3 µM (inactive); in the assay on OVCAR-3, 40.5 µM (inactive) and 42 µM (inactive). Further, the GI50 was 72.4 µM (inactive) and 89.3 µM (inactive) in the assay with SF-539; > 100 µM (inactive) and 60.3 µM (inactive) in the assay on TK-10; > 100 µM (inactive) and 57.8 µM (inactive) in the assay with SF-268; > 100 µM (inactive) in the assay on NCI-H460; > 100 µM (inactive) with IGROV-1; > 100 µM (inactive) in the assay on 786-0. Further, the GI50 in the assay on A498 was > 100 µM (inactive).

With `COC(=O)C1C(=O)N(CCc2c[nH]c3ccccc23)C[C@@H]2CCC(=O)C[C@H]12` (some centres undefined), the GI50 with K562, with CCRF-CEM, in the assay with UO-31, in the assay on HT-29, in the assay with OVCAR-3 and in the assay on SF-539 was > 100 µM (inactive) in each case. The GI50 in the assay with TK-10, in the assay with SF-268, in the assay with NCI-H460, in the assay on IGROV-1, in the assay with 786-0 and in the assay on A498 was > 100 µM (inactive) throughout. In the assay on HCT-116, the GI50 was > 100 µM (inactive).

Take `COC(=O)c1c/c(=N\NC(=O)CC(=O)Nc2ccccc2OC)c2ccccc2o1`: the GI50 in the assay with OVCAR-5 is > 100 µM (inactive); in the assay on K562, 54.2 µM (inactive); with UO-31 it was > 100 µM (inactive); in the assay on HT-29, > 100 µM (inactive); with OVCAR-3 it was > 100 µM (inactive); in the assay with SF-539, > 100 µM (inactive). Further, the GI50 in the assay on TK-10 is > 100 µM (inactive); in the assay on SF-268, > 100 µM (inactive); in the assay with NCI-H460, 76 µM (inactive); in the assay with IGROV-1, > 100 µM (inactive); in the assay on 786-0 it was 66.4 µM (inactive); in the assay with A498, > 100 µM (inactive). Further, the GI50 in the assay on SR and in the assay with HCT-116 was > 100 µM (inactive) throughout.

In the case of `CC1(C)CC(=O)C(=[N+]=[N-])C(=O)C1`, the GI50 in the assay with OVCAR-5, with K562, in the assay with CCRF-CEM, in the assay with HT-29, in the assay with OVCAR-3 and in the assay with SF-539 was > 100 µM (inactive) throughout. Further, the GI50 in the assay on TK-10, in the assay with SF-268, with IGROV-1, with 786-0 and with HCT-116 was > 100 µM (inactive) each time.

Consider `CCOC(=O)C(C)(C)Oc1ccc2c(=O)cc(-c3ccccc3)oc2c1`, for which the GI50 in the assay with OVCAR-5 is > 100 µM (inactive); in the assay on K562, 13 µM (inactive); in the assay on CCRF-CEM, 18 µM (inactive); in the assay with UO-31, 48.6 µM (inactive); with OVCAR-3, 19.5 µM (inactive); with SF-539, 20.2 µM (inactive). In addition, the GI50 with TK-10 is > 100 µM (inactive); with SF-268, 22.3 µM (inactive); in the assay on NCI-H460, 27.7 µM (inactive); in the assay on IGROV-1, 29.5 µM (inactive); in the assay on 786-0 it was 16.3 µM (inactive); with A498 it was > 100 µM (inactive). Also, the GI50 in the assay with HCT-116 is 17.3 µM (inactive).

Take `C=CCO/N=C(\OC(=O)c1ccc([N+](=O)[O-])cc1)c1ccccc1`: the GI50 in the assay with OVCAR-5, with K562, in the assay on CCRF-CEM, in the assay with UO-31, in the assay with HT-29 and in the assay on OVCAR-3 was > 100 µM (inactive) in each case. The GI50 in the assay on SF-539, with TK-10, in the assay on SF-268, in the assay on NCI-H460, in the assay on IGROV-1 and with 786-0 was > 100 µM (inactive) in each case. Further, in the assay on A498, the GI50 is > 100 µM (inactive).

For the compound `NC(=O)c1ccc(Cl)c([N+](=O)[O-])c1`, the GI50 with OVCAR-5, in the assay on K562, in the assay with CCRF-CEM, in the assay on UO-31, with HT-29 and in the assay on OVCAR-3 was > 100 µM (inactive) each time. For the same compound, the GI50 in the assay with SF-539, in the assay on TK-10, with SF-268, in the assay with NCI-H460, in the assay on IGROV-1 and in the assay on 786-0 was > 100 µM (inactive) in each case. Besides, the GI50 in the assay with A498 and in the assay with HCT-116 was > 100 µM (inactive) throughout.

As for `N=C(N)n1ncc(Cl)c(Cl)c1=O`, the GI50 in the assay with OVCAR-5 was 15.2 µM (inactive); in the assay with K562, 2.32 µM (inactive); in the assay with CCRF-CEM, 2.15 µM (inactive); in the assay on UO-31 it was 2.38 µM (inactive); in the assay with OVCAR-3, 1.91 µM (inactive); in the assay with SF-539, 2.34 µM (inactive). Moreover, the GI50 with TK-10 is 19.4 µM (inactive); in the assay on SF-268, 3.11 µM (inactive); in the assay on NCI-H460, 5.97 µM (inactive); with IGROV-1, 11.1 µM (inactive); with 786-0 it was 2.76 µM (inactive); in the assay on A498, 18.6 µM (inactive). In addition, the GI50 in the assay on HCT-116 was 1.73 µM (inactive).

`N#Cc1ccc(OCCSCCCCCCCCCCSCCOc2ccc(C#N)cc2)cc1`: the GI50 in the assay with OVCAR-5 is > 100 µM (inactive); in the assay with K562 it was > 100 µM (inactive); in the assay on CCRF-CEM, > 100 µM (inactive); with UO-31, 0.402 µM (active); with OVCAR-3 it was > 100 µM (inactive); with SF-539, > 100 µM (inactive). Also, the GI50 in the assay on TK-10, in the assay with SF-268, in the assay with NCI-H460, in the assay on IGROV-1, with 786-0 and in the assay with A498 was > 100 µM (inactive) in each case.

In the case of `COC(=O)C1=CC2OC1(C)C1(CC1)C2=O` (centres undefined), the GI50 with OVCAR-5 was 23.8 µM (inactive); in the assay with K562 it was 12.2 µM (inactive); in the assay on CCRF-CEM it was 5.6 µM (inactive); with UO-31 it was 22.1 µM (inactive); in the assay on HT-29, 12.9 µM (inactive); in the assay on OVCAR-3, 16.2 µM (inactive). For the same compound, the GI50 with SF-539 was 17.6 µM (inactive); with TK-10 it was > 10 µM (inactive); in the assay with SF-268 it was 20.3 µM (inactive); with NCI-H460, 22.6 µM (inactive); in the assay with IGROV-1, 17.9 µM (inactive); in the assay with 786-0 it was 17.2 µM (inactive). The GI50 was 10.3 µM (inactive) in the assay with SR and 13.8 µM (inactive) in the assay on HCT-116.

Take `COC1(OC)CCCCC2c3cccc(OC(C)=O)c3C21OC(C)=O` (centres undefined): the GI50 in the assay on OVCAR-5 is > 100 µM (inactive); with K562, 55.3 µM (inactive); with CCRF-CEM it was > 100 µM (inactive); with UO-31, 51.6 µM (inactive); in the assay with HT-29, > 100 µM (inactive); in the assay with OVCAR-3, 94 µM (inactive). Further, the GI50 with SF-539 is > 100 µM (inactive); in the assay on TK-10, > 100 µM (inactive); with SF-268, > 100 µM (inactive); in the assay on NCI-H460 it was > 10 µM (inactive); in the assay with IGROV-1 it was > 100 µM (inactive); in the assay on 786-0, > 100 µM (inactive). Moreover, the GI50 with SR is 59.2 µM (inactive); in the assay on HCT-116, 57.9 µM (inactive).

On to `NC(=S)N/N=C1\CCCC\C1=C/c1ccccc1`, for which the GI50 in the assay with OVCAR-5 is 12.8 µM (inactive); in the assay with K562, 2.71 µM (inactive); in the assay with CCRF-CEM it was 30.5 µM (inactive); with UO-31 it was 32.5 µM (inactive); in the assay with HT-29 it was 20 µM (inactive); in the assay with OVCAR-3 it was 39.1 µM (inactive). The GI50 in the assay on SF-539 was 93.8 µM (inactive); with TK-10 it was 39.9 µM (inactive); in the assay with SF-268, 54 µM (inactive); in the assay on NCI-H460, > 100 µM (inactive); in the assay on IGROV-1 it was 25.2 µM (inactive); in the assay on 786-0, 63.8 µM (inactive). Also, the values for the GI50 in the assay with A498 and in the assay on HCT-116 were > 100 µM (inactive) and 58.2 µM (inactive), respectively.

For `O=C(CCC(=O)C1Cc2ccccc2C1=O)Nc1cccc(C(F)(F)F)c1` (centres undefined), the GI50 in the assay on OVCAR-5, in the assay with K562, in the assay with CCRF-CEM, in the assay on UO-31, in the assay on HT-29 and with OVCAR-3 was > 100 µM (inactive) throughout. Also, the GI50 with SF-539, with TK-10, in the assay with SF-268, with NCI-H460, in the assay with IGROV-1 and in the assay on 786-0 was > 100 µM (inactive) each time. For the same compound, in the assay with HCT-116, the GI50 was > 100 µM (inactive).

As to `CCOc1ccccc1NC(=O)C(=O)CC(=O)c1c(C)[n+]([O-])c2ccccc2[n+]1[O-]`, the GI50 with OVCAR-5 is > 100 µM (inactive); with K562, > 100 µM (inactive); in the assay with CCRF-CEM it was 52.8 µM (inactive); with UO-31, > 100 µM (inactive); with HT-29, > 100 µM (inactive); in the assay with OVCAR-3, 25.2 µM (inactive). For the same compound, the GI50 in the assay on SF-539 was > 100 µM (inactive); in the assay with TK-10, > 100 µM (inactive); in the assay with SF-268, > 100 µM (inactive); in the assay on NCI-H460, 81.7 µM (inactive); in the assay with IGROV-1, > 100 µM (inactive); in the assay with 786-0 it was > 100 µM (inactive). The GI50 in the assay with A498 and in the assay on HCT-116 was > 100 µM (inactive) throughout.

On to `CCOC(=O)C1N(S(=O)(=O)c2ccc(C)cc2)CCC12c1ccccc1N(C(C)=O)C2C(/C=C/C(=O)OC)=C/C(=O)OC` (centres undefined), for which the GI50 in the assay with OVCAR-5 was > 100 µM (inactive); with K562, 85.3 µM (inactive); with CCRF-CEM, > 100 µM (inactive); in the assay on UO-31, > 100 µM (inactive); in the assay with HT-29 it was > 100 µM (inactive); with OVCAR-3 it was > 100 µM (inactive). Besides, the GI50 in the assay on SF-539, in the assay on TK-10, in the assay on SF-268, in the assay on NCI-H460, with IGROV-1 and with 786-0 was > 100 µM (inactive) each time. The GI50 with A498 and in the assay with HCT-116 was > 100 µM (inactive) in each case.
